In brackets after ≈: the same amount, converted by molar mass. Blank lines part the entries; values can stand above or below the molecule they belong to.
What was measured:
Experiment in all cases: ≥ marks a high value that may be exact or a test limit, other limits are often not marked, values filed in µg/mL are converted to µM
[1] = tested on: Streptococcus mutans UA159
[2] = tested on: Streptococcus sanguinis ATCC 10556
[3] = tested on: Streptococcus sobrinus ATCC 6715
[4] = tested on: Candida albicans ATCC 64550
[5] = tested on: Candida albicans ATCC 90028
[6] = tested on: Escherichia coli ATCC 25922
[7] = tested on: Pseudomonas aeruginosa ATCC 9027
[8] = tested on: Staphylococcus aureus ATCC 29737
[9] = tested on: Staphylococcus aureus USA 100
[10] = tested on: Staphylococcus aureus USA 300
[11] = tested on: Staphylococcus epidermidis ATCC 12228
Escherichia coli D31 = tested on: Escherichia coli D31
[12] = tested on: Listeria fleischmannii DSM 24998
Listeria grayi DSM 20601 = tested on: Listeria grayi DSM 20601
[13] = tested on: Listeria monocytogenes DSM 20600
[14] = tested on: Micrococcus luteus DSM 20030
[15] = tested on: Bacillus subtilis ATCC 6633
[16] = tested on: Candida albicans ATCC 10231
[17] = tested on: Candida parapsilosis ATCC 22019
Cryptococcus neoformans = tested on: Cryptococcus neoformans
[18] = tested on: Escherichia coli ATCC 9637
[19] = tested on: Klebsiella pneumoniae ATCC 27736
[20] = tested on: Pseudomonas aeruginosa ATCC BAA-427
Sporothrix schenckii = tested on: Sporothrix schenckii
[21] = tested on: Staphylococcus aureus ATCC 25923
[22] = tested on: Staphylococcus aureus ATCC 29213
[23] = tested on: Staphylococcus aureus ATCC 33592
[24] = tested on: Staphylococcus aureus ATCC 700698
[25] = tested on: Staphylococcus aureus ATCC 700699
[26] = tested on: Staphylococcus aureus ATCC BAA-44
[27] = tested on: Bacillus subtilis BGSC 1A1
Klebsiella pneumoniae = tested on: Klebsiella pneumoniae
[28] = tested on: Mycobacterium tuberculosis mc2-6020
[29] = tested on: Mycobacterium tuberculosis mc2-6230
[30] = tested on: Pseudomonas aeruginosa ATCC 27853
Streptococcus agalactiae = tested on: Streptococcus agalactiae
Streptococcus mutans = tested on: Streptococcus mutans
[31] = tested on: Streptococcus pneumoniae ATCC 49619
Streptococcus pyogenes = tested on: Streptococcus pyogenes
Candida albicans C627 = tested on: Candida albicans C627
[32] = tested on: Enterococcus faecium mic80
[33] = tested on: Escherichia coli ESBL 63103
[34] = tested on: Pseudomonas aeruginosa 213
[35] = tested on: Pseudomonas aeruginosa H103
[36] = tested on: Pseudomonas aeruginosa LES400
[37] = tested on: Staphylococcus aureus C623
[38] = tested on: Actinomyces naeslundii ATCC 12104
[39] = tested on: Actinomyces viscosus ATCC 15987
[40] = tested on: Lacticaseibacillus casei ATCC 393
[41] = tested on: Lactobacillus acidophilus ATCC 14931
[42] = tested on: Limosilactobacillus fermentum ATCC 9338
[43] = tested on: Streptococcus gordonii DL1

SMILES: NCCCC[C@H](NC(=O)[C@H](Cc1c[nH]c2ccccc12)NC(=O)[C@H](CCCCN)NC(=O)[C@H](CCCCN)NC(=O)[C@H](Cc1ccccc1)NC(=O)[C@H](Cc1ccccc1)NC(=O)[C@H](CCCCN)NC(=O)[C@H](CCCCN)NC(=O)[C@H](Cc1ccccc1)NC(=O)[C@H](Cc1ccccc1)NC(=O)[C@H](CCCCN)NC(=O)[C@@H](N)Cc1ccccc1)C(=O)O [FKFFKKFFKKWK]
MIC [1]: 9.36 µM (≈ 16 µg/mL)
MIC [2]: 18.7 µM (≈ 32 µg/mL)
MIC [3]: 18.7 µM (≈ 32 µg/mL)

SMILES: CC[C@H](C)[C@H](NC(=O)[C@H](C)NC(=O)[C@H](CCCCN)NC(=O)[C@H](CCCCN)NC(=O)[C@@H](NC(=O)CNC(=O)[C@H](CCC(=O)O)NC(=O)[C@H](CC(C)C)NC(=O)[C@H](CC(C)C)NC(=O)[C@H](CCCCN)NC(=O)CNC(=O)[C@H](Cc1c[nH]c2ccccc12)NC(=O)[C@H](Cc1ccccc1)NC(=O)CN)C(C)C)C(N)=O [GFWGKLLEGVKKAI]
MIC (Escherichia coli D31): 15 µM (≈ 23.2 µg/mL)
MIC [12]: 15 µM (≈ 23.2 µg/mL)
MIC (Listeria grayi DSM 20601): 8 µM (≈ 12.4 µg/mL)
MIC [13]: 15 µM (≈ 23.2 µg/mL)
MIC [14]: 8 µM (≈ 12.4 µg/mL)

SMILES: CC[C@H](C)[C@H](NC(=O)[C@H](C)NC(=O)CNC(=O)[C@H](CCCCN)NC(=O)[C@@H](NC(=O)[C@H](CC(C)C)NC(=O)[C@H](Cc1c[nH]c2ccccc12)NC(=O)CNC(=O)[C@H](Cc1ccccc1)NC(=O)[C@@H](N)Cc1ccccc1)[C@@H](C)CC)C(=O)N[C@@H](Cc1cnc[nH]1)C(=O)N[C@@H](C)C(=O)NCC(=O)N[C@@H](CCCCN)C(=O)N[C@@H](C)C(=O)N[C@H](C(=O)N[C@@H](Cc1cnc[nH]1)C(=O)N1CCC[C@H]1C(=O)N[C@@H](CC(C)C)C(=O)N[C@H](C(=O)N[C@@H](Cc1cnc[nH]1)C(=O)N[C@@H](CCCN=C(N)N)C(=O)N[C@@H](CCCN=C(N)N)C(=O)N[C@@H](CCCN=C(N)N)C(=O)N[C@@H](Cc1cnc[nH]1)C(=O)O)[C@@H](C)CC)[C@@H](C)CC [FFGWLIKGAIHAGKAIHPLIHRRRH]
MIC [15]: 3 µM (≈ 8.8 µg/mL)
MIC [16]: 13.6 µM (≈ 39.9 µg/mL)
MIC [17]: 13.6 µM (≈ 39.9 µg/mL)
MIC (Cryptococcus neoformans): 13.6 µM (≈ 39.9 µg/mL)
MIC [18]: 3 µM (≈ 8.8 µg/mL)
MIC [19]: 13.6 µM (≈ 39.9 µg/mL)
MIC [20]: 6.8 µM (≈ 19.9 µg/mL)
MIC (Sporothrix schenckii): 27.2 µM (≈ 79.8 µg/mL)
MIC [21]: 3 µM (≈ 8.8 µg/mL)
MIC [22]: 6.8 µM (≈ 19.9 µg/mL)
MIC [23]: 1.6 µM (≈ 4.69 µg/mL)
MIC [24]: 3 µM (≈ 8.8 µg/mL)
MIC [25]: 3 µM (≈ 8.8 µg/mL)
MIC [26]: 3 µM (≈ 8.8 µg/mL)

SMILES: CC(C)C[C@H](NC(=O)CN)C(=O)N[C@@H](CC(C)C)C(=O)N[C@@H](Cc1c[nH]c2ccccc12)C(=O)N[C@@H](Cc1cnc[nH]1)C(=O)N[C@@H](CC(C)C)C(=O)N[C@@H](CC(C)C)C(=O)N[C@@H](Cc1cnc[nH]1)C(N)=O [GLLWHLLH]
MIC [38]: ≥ 130 µM
MIC [39]: ≥ 32.4 µM
MIC [40]: ≥ 64.8 µM
MIC [41]: ≥ 130 µM
MIC [42]: ≥ 130 µM
MIC [43]: ≥ 518 µM
MIC [1]: ≥ 259 µM
MIC [2]: ≥ 518 µM

The next lines start with the values.

MIC [4]: 12.5 µM (≈ 13.7 µg/mL)
MIC [5]: 6.25 µM (≈ 6.84 µg/mL)
MIC [6]: 7.12 µM (≈ 7.79 µg/mL)
MIC [7]: 6.25 µM (≈ 6.84 µg/mL)
MIC [8]: 28.6 µM (≈ 31.3 µg/mL)
MIC [9]: 6.25 µM (≈ 6.84 µg/mL)
MIC [10]: 6.25 µM (≈ 6.84 µg/mL)
MIC [11]: 3.56 µM (≈ 3.9 µg/mL)
SMILES: CC[C@H](C)[C@H](N)C(=O)N[C@@H](CCCN=C(N)N)C(=O)N[C@H](C(=O)N[C@@H](CCCN=C(N)N)C(=O)N[C@H](C(=O)N[C@@H](CCCN=C(N)N)C(=O)N[C@H](C(=O)N[C@@H](CCCN=C(N)N)C(N)=O)[C@@H](C)CC)[C@@H](C)CC)[C@@H](C)CC [IRIRIRIR]

MIC [27]: 2 µM (≈ 3.77 µg/mL)
MIC [6]: 8 µM (≈ 15.1 µg/mL)
MIC (Klebsiella pneumoniae): 32 µM (≈ 60.4 µg/mL)
MIC [28]: 4 µM (≈ 7.55 µg/mL)
MIC [29]: ≥ 32 µM
MIC [30]: 32 µM (≈ 60.4 µg/mL)
MIC [21]: 68 µM (≈ 128 µg/mL)
MIC (Streptococcus agalactiae): 4 µM (≈ 7.55 µg/mL)
MIC (Streptococcus mutans): 4 µM (≈ 7.55 µg/mL)
MIC [31]: ≥ 32 µM
MIC (Streptococcus pyogenes): 4 µM (≈ 7.55 µg/mL)
SMILES: CC[C@H](C)[C@H](N)C(=O)N[C@@H](CC(C)C)C(=O)N[C@@H](CO)C(=O)N[C@@H](CC(C)C)C(=O)N[C@@H](CCCN=C(N)N)C(=O)N[C@@H](Cc1c[nH]c2ccccc12)C(=O)N[C@@H](CCCN=C(N)N)C(=O)N[C@@H](Cc1c[nH]c2ccccc12)C(=O)N[C@@H](Cc1c[nH]c2ccccc12)C(=O)N[C@@H](CCCCN)C(=O)N[C@@H](Cc1c[nH]c2ccccc12)C(=O)N[C@@H](CCCCN)C(=O)N[C@@H](CCCCN)C(=O)O [ILSLRWRWWKWKK]

MIC (Candida albicans C627): 5.54 µM (≈ 8 µg/mL)
MIC [32]: 22.1 µM (≈ 32 µg/mL)
MIC [33]: ≥ 44.3 µM
MIC [34]: ≥ 88.6 µM
MIC [35]: 22.1 µM (≈ 32 µg/mL)
MIC [36]: ≥ 44.3 µM
MIC [21]: 11.1 µM (≈ 16 µg/mL)
MIC [37]: 11.1 µM (≈ 16 µg/mL)
SMILES: CC[C@H](C)[C@H](NC(=O)[C@H](CCCCN)NC(=O)[C@H](Cc1c[nH]c2ccccc12)NC(=O)[C@H](Cc1c[nH]c2ccccc12)NC(=O)[C@@H](N)CCCCN)C(=O)N[C@@H](Cc1c[nH]c2ccccc12)C(=O)N[C@@H](CCCN=C(N)N)C(=O)N[C@@H](Cc1c[nH]c2ccccc12)C(=O)N[C@@H](CCCN=C(N)N)C(=O)O [KWWKIWRWR]
